Assay results as given in patent US20040171086A1, “Selective modulation of TLR-mediated biological activity” (3M Innovative Properties Company, priority 2003, published 2004).

What was measured:
Format in all cases: cell-based, human
[1] = system: myeloid dendritic cells (mDCs); assay: Activation of blood myeloid dendritic cells (CD80/HLA-DR staining, flow cytometry); details: two donors; 1 μM IRM or 3 μM CpG2216, 16-24 hours; HLA-DR positive with increased CD80; FIG. 1
Procedure: (§1) The blood myeloid dendritic cells (mDC) were isolated from the BDCA-4 negative cell fraction using the Miltenyi Microbead technology system (Miltenyi BioTec, Auburn, Calif.). Cells were resuspended in 4° C. separation buffer (PBS- pH 7.2, 0.5% BSA-2.5 gm, 2 mM 0.5M EDTA) at 20 μl per 10^7 total cells. […] The cells were resuspended in 500 μL of separation buffer per 10^8 total cells. […] BDCA-1^+mDCs were enriched using the Miltenyi Automacs POSSELD software. The cells retained in the column were eluted into a sterile 50 mL polystyrene conical tube.
(§2) Compounds, reconstituted in dimethyl sulfoxide (DMSO, sterile cell culture grade, Sigma Chemical Co., St. Louis, Mo.) were added at 2× their final concentration to a 96-well flat-bottom sterile tissue culture polystyrene plate (Benton Dickinson Labware, Franklin Lakes, N.J.). Cells were then added at 2× the final concentration (final cell concentration is 1×10^6 cells/mL). Plates were incubated for 16-24 hours at 37° C., 5% CO2. After incubation, plates were centrifuged at 1000 RPM for 10 minutes at 25° C. Supernatants were transferred to a 0.75 mL sterile polypropylene Matrix box (Matrix, Hudson, N.Y.) and stored at −20° C. for future cytokine analysis.

[2] = system: plasmacytoid dendritic cells (pDCs); assay: Activation of plasmacytoid dendritic cells (CD80/HLA-DR staining, flow cytometry); details: two donors; 1 μM IRM or 3 μM CpG2216, 16-24 hours; HLA-DR positive with increased CD80; FIG. 2
Procedure: The cells were resuspended in 500 μL of separation buffer per 10^8 total cells. […] The cells retained in the column were eluted into a sterile 50 mL polystyrene conical tube.
as §2

Myeloid DCs = assay: IL-12 production by myeloid DCs (IGEN analysis)
Procedure: as §1, §2
IL-12 analysis was performed using IGEN analysis. More than two hours prior to performing the analysis, a 1:20 dilution of M-280 Streptavidin Dynabeads was prepared in IGEN buffer. Also, a 1 μg/mL solution of biotinylated IL-12 antibody (Cat. No. AHC7129, Biosource International, Camarillo, Calif.) in IGEN buffer was prepared. The 1:20 Dynabeads solution and the biotinylated antibody solution were mixed together and incubated 30 minutes at room temperature, then stored at 4° C. until the analysis was performed.
To perform the analysis, 50 μL of the Dynabeads/biotinylated antibody solution was added to each well of a 96-well plate. […] 25 μL of sample was added to each well, each sample containing either a standard dilution or an experimental sample.
The 96-well plate was tapped to mix the contents of each well, covered with plate sealer, and incubated at room temperature for 2.5 hours. Following the incubation, 100 μL of IGEN PBS Buffer was added to each well for a total assay volume of 200 μL and read on the IGEN M-8 Analyzer (IGEN International, Inc., Gaithersburg, Md.) using the hIL-12 protocol.

SMILES	activation of myeloid dendritic cells (mDCs) in vitro [1]	activation of plasmacytoid dendritic cells (pDCs) in vitro [2]	IL-12 (Myeloid DCs; donor3, 3.0 μM IRM)	IL-12 (Myeloid DCs; donor4, 3.0 μM IRM)
CCc1nc2c(N)nc3ccccc3c2n1CCCCNS(C)(=O)=O [IRM36, N-[4-(4-amino-2-ethyl-1H-imidazo[4,5-c]quinolin-1-yl)butyl]methanesulfonamide]	not activated	activated	57 pg/mL	77 pg/mL
Cc1nc2c(N)nc3ccccc3c2n1CCCCNC(=O)N1CCCCC1 [IRM38, N-[4-(4-amino-2-methyl-1H-imidazo[4,5-c]quinolin-1-yl)butyl]piperidine-1-carboxamide]			17 pg/mL	20 pg/mL
CCCc1nc2c(N)nc3ccccc3c2s1 [IRM9, 2-propylthiazolo[4,5-c]quinolin-4-amine]			693 pg/mL	
CCOCc1nc2c(N)nc3ccccc3c2n1CCCNC(=S)Nc1cccc(C#N)c1 [IRM37, N-{3-[4-amino-2-(ethoxymethyl)-1H-imidazo[4,5-c]quinolin-1-yl]propyl}-N′-(3-cyanophenyl)thiourea]			296 pg/mL	491 pg/mL
CCc1nc2c(N)nc3ccccc3c2n1CC(C)(C)NC(=O)Nc1ccccc1 [IRM39, N-[2-(4-amino-2-ethyl-1H-imidazo[4,5-c]quinolin-1-yl)-1,1-dimethylethyl]-N′-phenylurea]			280 pg/mL	400 pg/mL
CC(C)Cn1cnc2c(N)nc3ccccc3c21 [IRM41, 1-(2-methylpropyl)-1H-imidazo[4,5-c]quinolin-4-amine]			17 pg/mL	39 pg/mL
CCOCc1nc2c(N)nc3ccccc3c2n1CC(C)(C)O [IRM40, 4-amino-α,α-dimethyl-2-ethoxymethyl-1H-imidazo[4,5-c]quinolin-1-ethanol]			517 pg/mL	765 pg/mL
